Like-named read-outs stand apart in the source and are kept apart here.
Legend:
AChE = AChE (Electrophorus electricus, UniProt O42275); assay: AChE inhibition, modified Ellman's method; type: biochemical; conditions: for IC50: determined using 10^−3–10^−9 M concentrations
BChE = type: biochemical
Protocol: New benzimidazole-triazole derivatives were designed, synthesized, and evaluated for their potential to inhibit AChE and BChE. First, all the synthesized compounds were tested at 10^−3 M and 10^−4 M concentrations.
The inhibitory activities of the compounds against AChE and BChE were determined in 96-well plates by modified Ellman’s method as defined in our previous studies. Donepezil and tacrine were used as reference drugs. A robotic system, Biotek Precision XS (Winooski, VT, USA), was used for all pipetting processes in the enzyme inhibition assay. Measurements of the percentage inhibition were carried out at 412 nm by using a BioTek-Synergy H1 microplate reader (Winooski, VT, USA). Inhibition potencies of synthesized compounds and IC50 of selected derivatives were calculated as reported previously.

Sequence of AChE (O42275 24-633): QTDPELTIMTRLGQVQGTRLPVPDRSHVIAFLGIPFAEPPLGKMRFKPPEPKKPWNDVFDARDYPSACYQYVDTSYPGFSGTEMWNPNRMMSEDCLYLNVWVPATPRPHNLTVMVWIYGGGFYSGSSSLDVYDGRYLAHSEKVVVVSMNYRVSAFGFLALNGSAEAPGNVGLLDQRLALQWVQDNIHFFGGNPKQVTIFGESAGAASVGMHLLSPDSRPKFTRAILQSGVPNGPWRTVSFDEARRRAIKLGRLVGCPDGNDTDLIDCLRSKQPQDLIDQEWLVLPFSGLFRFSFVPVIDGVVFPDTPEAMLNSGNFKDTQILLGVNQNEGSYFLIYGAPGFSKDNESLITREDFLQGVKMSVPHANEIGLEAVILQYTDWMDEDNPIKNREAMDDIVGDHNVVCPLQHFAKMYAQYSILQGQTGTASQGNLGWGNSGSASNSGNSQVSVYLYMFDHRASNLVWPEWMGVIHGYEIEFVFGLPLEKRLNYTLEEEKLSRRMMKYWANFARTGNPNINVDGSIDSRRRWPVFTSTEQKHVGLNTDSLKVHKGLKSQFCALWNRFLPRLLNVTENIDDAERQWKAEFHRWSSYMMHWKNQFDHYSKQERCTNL

Structure (SMILES)	% Inhibition AChE (AChE; 10^−3 M) [%]	% Inhibition AChE (AChE; 10^−4 M) [%]	% Inhibition BChE (BChE; 10^−3 M) [%]	% Inhibition BChE (BChE; 10^−4 M) [%]	% Inhibition of AChE (AChE; 10^−5 M) [%]	% Inhibition of AChE (AChE; 10^−6 M) [%]	% Inhibition of AChE (AChE; 10^−7 M) [%]	% Inhibition of AChE (AChE; 10^−8 M) [%]	% Inhibition of AChE (AChE; 10^−9 M) [%]	IC50 (AChE) [nM]
Cn1c(SCC(=O)c2ccc(C#N)cc2)nnc1-c1ccc(-c2nc3cc(F)ccc3[nH]2)cc1 [3i, 2-(4-(4-Methyl-5-(2-(4-cyanophenyl)-2-oxo-ethylthio)-4H-1,2,4-triazol-3yl)-phenyl)-5(6)-fluoro-1H-benz-imidazole]	61.22 ± 1.02	38.28 ± 0.67	43.51 ± 0.78	18.49 ± 0.50	–	–	–	–	–	–
Cn1c(SCC(=O)c2ccc(Br)cc2)nnc1-c1ccc(-c2nc3cc(F)ccc3[nH]2)cc1 [3j, 2-(4-(4-Methyl-5-(2-(4-bromophenyl)-2-oxo-ethylthio)-4H-1,2,4-triazol-3yl)-phenyl)-5(6)-fluoro-1H-benz-imidazole]	48.51 ± 0.88	18.39 ± 0.60	29.64 ± 0.87	21.44 ± 0.70	–	–	–	–	–	–
Cc1ccc(C(=O)CSc2nnc(-c3ccc(-c4nc5cc(F)ccc5[nH]4)cc3)n2C)cc1 [3k, 2-(4-(4-Methyl-5-(2-(4-methylphenyl)-2-oxo-ethylthio)-4H-1,2,4-triazol-3yl)-phenyl)-5(6)-fluoro-1H-benz-imidazole]	42.29 ± 0.71	27.88 ± 0.67	36.17 ± 0.93	21.16 ± 0.97	–	–	–	–	–	–
Cn1c(SCC(=O)c2ccc(O)c(O)c2)nnc1-c1ccc(-c2nc3cc(F)ccc3[nH]2)cc1 [3l, 2-(4-(4-Methyl-5-(2-(3,4-dihydroxyphenyl)-2-oxo-ethylthio)-4H-1,2,4-triazol-3yl)-phenyl)-5(6)-fluoro-1H-benzimidazole]	94.58 ± 1.74	–	55.43 ± 0.47	29.88 ± 0.38	73.18 ± 1.17	68.20 ± 0.97	48.11 ± 0.61	32.29 ± 0.58	18.77 ± 0.37	169 ± 7.2
CCn1c(SCC(=O)c2ccc(C#N)cc2)nnc1-c1ccc(-c2nc3cc(F)ccc3[nH]2)cc1 [3m, 2-(4-(4-Ethyl-5-(2-(4-cyanophenyl)-2-oxo-ethylthio)-4H-1,2,4-triazol-3yl)-phenyl)-5(6)-fluoro-1H-benz-imidazole]	59.03 ± 0.88	39.26 ± 0.46	48.11 ± 0.38	20.66 ± 0.45	–	–	–	–	–	–
CCn1c(SCC(=O)c2ccc(Br)cc2)nnc1-c1ccc(-c2nc3cc(F)ccc3[nH]2)cc1 [3n, 2-(4-(4-Ethyl-5-(2-(4-bromophenyl)-2-oxo-ethylthio)-4H-1,2,4-triazol-3yl)-phenyl)-5(6)-fluoro-1H-benz-imidazole]	49.27 ± 0.55	30.21 ± 0.49	27.10 ± 0.53	18.77 ± 0.42	–	–	–	–	–	–
CCn1c(SCC(=O)c2ccc(C)cc2)nnc1-c1ccc(-c2nc3cc(F)ccc3[nH]2)cc1 [3o, 2-(4-(4-Ethyl-5-(2-(4-methylphenyl)-2-oxo-ethylthio)-4H-1,2,4-triazol-3yl)-phenyl)-5(6)-fluoro-1H-benz-imidazole]	28.06 ± 0.33	19.22 ± 0.30	25.99 ± 0.38	20.08 ± 0.46	–	–	–	–	–	–
CCn1c(SCC(=O)c2ccc(O)c(O)c2)nnc1-c1ccc(-c2nc3cc(F)ccc3[nH]2)cc1 [3p, 2-(4-(4-Ethyl-5-(2-(3,4-dihydroxyphenyl)-2-oxo-ethylthio)-4H-1,2,4-triazol-3yl)-phenyl)-5(6)-fluoro-1H-benzimidazole]	87.26 ± 1.17	–	53.19 ± 0.46	31.44 ± 0.38	77.48 ± 1.98	71.62 ± 1.08	47.83 ± 0.97	39.33 ± 0.67	15.47 ± 0.64	140 ± 5.1

Reference: article PMC6429502, “Synthesis and AChE-Inhibitory Activity of New Benzimidazole Derivatives” (Molecules, 2019)
